Data from patent US20190192458A1, “THERAPEUTIC/PROPHYLACTIC AGENT FOR GRAFT-VERSUS-HOST DISEASE, FIBROCYTE INVASION INHIBITOR, AND INHIBITOR AGAINST TEAR REDUCTION AND REDUCTION IN GOBLET CELLS” (KEIO UNIVERSITY, priority 2016, published 2019).

Tests used:
[1] = test system: mouse splenic macrophages; assay: Cultured splenic macrophages from PBA-treated and vehicle-treated mice (immunofluorescence, immunoblot, qPCR); format: cell-based
Description: Bone marrow transplantation was performed as described in the above section “Bone marrow transplantation,” and the resulting allogeneic bone marrow transplantation recipient mice were divided into two groups. One group was treated with intraperitoneal injection of PBA (10 mg/kg) (Aldrich) while the other was treated with intraperitoneal injection of a solvent vehicle⋅phosphate buffered saline (PBS) (pH 7.4). The allogeneic bone marrow transplantation recipients received once-daily administration of PBA or the solvent vehicle from Day 10 to Day 27 after bone marrow transplantation. They were sacrificed on Day 28 after bone marrow transplantation.
Mouse splenic macrophages were cultured according to the Alatery and Besta method (Alatery A, Basta S, An efficient culture method for generating large quantities of mature mouse splenic macrophages. J Immunol Methods, 2008; 338: 47-57). Splenic cells suspended in RPMI containing 5% FBS were plated on a culture dish, and allowed to stand at 37° C. overnight. Subsequently, floating cells were removed. The desired cells adhering on the dish were cultured for 7 days in RPMI containing recombinant mouse M-CSF (5 ng/mL) (Peprotech Inc.), 5% of FBS, and 5% of the antibiotic. Induced macrophages were then detached from the culture dish by using accutase (Thermo Fisher Scientific), and used for experiments.
The induced macrophages were then transferred to an 8-well chamber slide (Fibronectin Culture Slide; Corning), and fixed with 10% neutral buffered formalin. Subsequently, they were blocked with methanol containing 0.3% hydrogen peroxide for 30 minutes at room temperature, and incubated with primary antibodies CD68 (AbD Serotec) and CHOP (Santa Cruz) overnight at 4° C. Then, the sections were treated with goat anti-mouse IgG (H+L) secondary antibody conjugated with Alexa Fluor 568 (Molecular Probes) and 4′,6-diamidino-2-phenylindole (DAPI) (Life Technologies) at room temperature for 45 minutes, and then mounted with an anti-fading mounting medium (Dako). Fluorescence images were captured under an LSM confocal microscope (Carl Zeiss).
The total RNA was extracted from the exorbital lacrimal gland, the proximal portion of the small intestine, the dorsal skin, the liver, the cultured fibroblasts, and the cultured macrophages using a miRNeasy mini kit (Qiagen), and the corresponding complementary DNAs were synthesized using a Rever Tra Ace qPCR RT kit (Toyobo Co., Ltd.). Primers used for analyzing the mRNA expression of the following genes with the TaqMan real-time polymerase chain reaction (PCR) were purchased from Applied Biosystems: housekeeping gene […] (GAPDH), glucose-regulated protein 78 (GRP78), Interleukin-1β (IL-1β), IL-6, IL-10, macrophage chemoattractant protein-1 (MCP-1), and transcription growth factor-β (TGF). A Step One Plus system (Applied Biosystems) was used to perform quantitative real time PCR, and the resulting data was analyzed by the 2^−ΔΔCT method. GAPDH was used as an internal standard for measuring the expression of mRNA.
Tissues of interest were each placed into an Eppendorf tube, and a pre-cooled RIPA buffer solution was then added to the tube. Subsequently, the tissues were each homogenized with an electric homogenizer. Samples were each allowed to stand on ice for 1 hour, and then centrifuged at 15000 rpm for 5 minutes at 4° C. Then, the supernatants were each collected in a fresh tube on ice, and used as a cell lysate. The cell lysates each received the same amount of a 5×Laemmli buffer solution, and each was heated at 100° C. for 5 minutes to denature proteins.
An aliquot of each sample having the same amount of proteins was loaded into a well of an SDS-PAGE gel, and then […]. Proteins were transferred from the gel to a membrane at 15 V for 20 minutes. The membrane was blocked at room temperature for 1 hour with 5% skim milk or 5% BSA (bovine serum albumin) in 1×TBST (a mixture of Tris-buffered saline and Tween 20). […]

[2] = test system: CHOP-expressing macrophages in lacrimal gland; assay: Immunofluorescence of CD68/CHOP in lacrimal gland; format: in vivo; conditions: lacrimal gland from PBA-treated vs vehicle-treated mouse, FIG. 7A
Description: Bone marrow transplantation was performed as described in the above section “Bone marrow transplantation,” and the resulting allogeneic bone marrow transplantation recipient mice were divided into two groups. One group was treated with intraperitoneal injection of PBA (10 mg/kg) (Aldrich) while the other was treated with intraperitoneal injection of a solvent vehicle⋅phosphate buffered saline (PBS) (pH 7.4). The allogeneic bone marrow transplantation recipients received once-daily administration of PBA or the solvent vehicle from Day 10 to Day 27 after bone marrow transplantation. They were sacrificed on Day 28 after bone marrow transplantation. […]
Fluorescence images were captured under an LSM confocal microscope (Carl Zeiss). For counting CD45^+ cells, 5 randomly selected regions per section were photographed at a magnification of ×200, and the number of CD45^+ cells in each image was then determined. […]

[3] = splenic macrophages from PBA-treated vs vehicle-treated mouse, immunoblot, n=4
[4] = splenic macrophages, qPCR, n=4 to 5, PBA-treated vs vehicle-treated, FIG. 7E

O=C(O)CCCc1ccccc1 [PBA, 4-phenyl-n-butyric acid]
CHOP expression in cultured splenic macrophages (immunofluorescence) ([1]; splenic macrophages from PBA-treated vs vehicle-treated mouse, FIG. 7B): vehicle-treated splenic macrophages express CHOP in contrast with PBA-treated splenic macrophages
CHOP in splenic macrophages (immunoblot) [1, 3]: substantially inhibited
GRP78 in splenic macrophages [1, 3]: substantially inhibited
phosphorylated IRE1α in splenic macrophages [1, 3]: substantially inhibited
phosphorylated PERK in splenic macrophages [1, 3]: substantially inhibited
phosphorylated eIF2α in splenic macrophages [1, 3]: substantially inhibited
gene expression of M1 macrophage marker IL-1β [1, 4]: higher gene expressions
gene expression of M1 macrophage marker IL-6 [1, 4]: higher gene expressions
mRNA expression of M2 macrophage marker IL-10 [1, 4]: increased in the vehicle-treated macrophages as compared with the PBA-treated macrophages
mRNA expression of M2 macrophage marker TGF-β [1, 4]: increased in the vehicle-treated macrophages as compared with the PBA-treated macrophages
CHOP-expressing macrophages migrated into lacrimal gland [2]: not observed
